In patent publication US9827235B2, “Pharmaceutical compositions comprising antibacterial agents” (WOCKHARDT LIMITED, priority 2013, dated 2017):
Like-named read-outs stand apart in the source and are kept apart here.

Columns and labels:
Format in all cases: cell-based
E. coli M 44 = test: MIC on Muller Hinton Agar (CLSI); conditions: Escherichia coli
Procedure: (§1) The antibacterial activity of combinations according to the invention was investigated against various bacterial strains. In a typical study, minimum inhibitory concentrations (MIC) were determined using Muller Hinton Agar (MHA) (BD, USA) according to Clinical and Laboratory Standards Institute (CLSI) recommendations, (Clinical and Laboratory Standards Institute (CLSI), Performance Standards for Antimicrobial Susceptibility Testing, 20th Informational Supplement, M 100-S20, Volume 30, No. 1, 2010). In short, the inocula were adjusted to deliver about 10^4 colony forming units (CFU) per spot with a multipoint inoculator (Applied Quality Services, UK). The plates were pored with doubling concentration range of the test combinations according to invention containing MHA. The plates were inoculated and were incubated at 35° C. for 18 hours.

E. coli S 16 = test: MIC on Muller Hinton Agar (CLSI); conditions: Escherichia coli
Procedure: as §1

E. coli S 30 = test: MIC on Muller Hinton Agar (CLSI); conditions: Escherichia coli
Procedure: as §1

E. coli S 330 = test: MIC on Muller Hinton Agar (CLSI); conditions: Escherichia coli
Procedure: as §1

E. coli S 33 = test: MIC on Muller Hinton Agar (CLSI); conditions: Escherichia coli
Procedure: as §1

E. coli S 35 = test: MIC on Muller Hinton Agar (CLSI); conditions: Escherichia coli
Procedure: as §1

K. pneumoniae B 77 = test: MIC on Muller Hinton Agar (CLSI); conditions: Klebsiella pneumoniae
Procedure: as §1

K. pneumoniae B 88 = test: MIC on Muller Hinton Agar (CLSI); conditions: Klebsiella pneumoniae
Procedure: as §1

K. pneumoniae M 3 = test: MIC on Muller Hinton Agar (CLSI); conditions: Klebsiella pneumoniae
Procedure: as §1

K. pneumoniae NCTC 13439 = test: MIC on Muller Hinton Agar (CLSI); conditions: Klebsiella pneumoniae
Procedure: as §1

K. pneumoniae S 48 = test: MIC on Muller Hinton Agar (CLSI); conditions: Klebsiella pneumoniae
Procedure: as §1

K. pneumoniae S 50 = test: MIC on Muller Hinton Agar (CLSI); conditions: Klebsiella pneumoniae
Procedure: as §1

[1] = test system: P. aeruginosa H 113720186; test: MIC on Muller Hinton Agar (CLSI); conditions: Pseudomonas aeruginosa
Procedure: as §1

P. aeruginosa Q-111 = test: MIC on Muller Hinton Agar (CLSI); conditions: Pseudomonas aeruginosa
Procedure: as §1

P. aeruginosa S 504 = test: MIC on Muller Hinton Agar (CLSI); conditions: Pseudomonas aeruginosa
Procedure: as §1

P. aeruginosa S 508 = test: MIC on Muller Hinton Agar (CLSI); conditions: Pseudomonas aeruginosa
Procedure: as §1

P. aeruginosa S 513 = test: MIC on Muller Hinton Agar (CLSI); conditions: Pseudomonas aeruginosa
Procedure: as §1

[2] = test system: clinical isolate of K. pneumoniae B 88 producing metallo beta-lactamases [SHV, TEM, NDM-1]; test: Time kill study; conditions: for Bacterial count: each agent at 8 mcg/ml, initial count 6.18 log CFU/ml
Procedure: (§2) Typically, freshly grown cultures were diluted to the required cell density (initial starting inoculum) in Cation adjusted Muller Hinton broth medium BD, USA). The antibacterial agents at the required concentrations were added into the culture-containing medium either alone or in combination. The samples were incubated under shaking condition (120 rpm) at 37° C. Enumeration of viable bacterial count was undertaken, every 2 hour, by diluting in normal saline and plating on to the Tryptic Soya Agar plates (BD, USA). The plates were incubated for 24 hours to arrive at the viable bacterial count. […] The decrease of 1 Log CFU/ml, after administration of combination of present invention, in comparison to initial bacterial count corresponds to 90% killing of bacteria. Similarly, 2 Log CFU/ml reductions corresponds to 99% killing of bacteria and 3 Log CFU/ml reductions is equal to 99.9% killing of bacteria.

[3] = test system: clinical isolate of K. pneumoniae S 48 producing metallo beta-lactamases [SHV, TEM, NDM-1]; test: Time kill study; conditions: for Bacterial count: each agent at 8 mcg/ml, initial count 6.84 log CFU/ml
Procedure: as §2

[4] = test system: highly resistant strains of E. coli, K. pneumonia and P. aeruginosa; test: MIC, summary over the strain panel
Procedure: as §1

[5] = used alone at 8 mcg/ml, at the end of 6 hours

MIC (E. coli M 44; M44, agent alone, enzymes TEM, NDM-1, read-out: MIC): > 32 µg/mL | MIC (E. coli M 44; M44, with compound of Formula (I) at 8 mcg/ml, read-out: MIC (mcg/ml) of cefepime in presence of a compound of Formula (I) (8 mcg/ml)): ≤ 0.015 µg/mL | MIC (E. coli S 16; S16, agent alone, enzymes CMY type, TEM, DHA, read-out: MIC): > 32 µg/mL | MIC (E. coli S 16; S16, with compound of Formula (I) at 8 mcg/ml, read-out: MIC (mcg/ml) of cefepime in presence of a compound of Formula (I) (8 mcg/ml)): ≤ 0.015 µg/mL | MIC (E. coli S 30; S30, agent alone, enzymes CMY type, TEM, NDM-1, read-out: MIC): > 32 µg/mL | MIC (E. coli S 30; S30, with compound of Formula (I) at 8 mcg/ml, read-out: MIC (mcg/ml) of cefepime in presence of a compound of Formula (I) (8 mcg/ml)): ≤ 0.015 µg/mL | MIC (E. coli S 330; S330, agent alone, enzymes NDM, read-out: MIC): > 32 µg/mL | MIC (E. coli S 330; S330, with compound of Formula (I) at 8 mcg/ml, read-out: MIC (mcg/ml) of cefepime in presence of a compound of Formula (I) (8 mcg/ml)): ≤ 0.015 µg/mL | MIC (E. coli S 33; S33, agent alone, enzymes TEM, NDM-1, read-out: MIC): > 32 µg/mL | MIC (E. coli S 33; S33, with compound of Formula (I) at 8 mcg/ml, read-out: MIC (mcg/ml) of cefepime in presence of a compound of Formula (I) (8 mcg/ml)): ≤ 0.015 µg/mL | MIC (E. coli S 35; S35, agent alone, enzymes TEM, NDM-1, read-out: MIC): > 32 µg/mL | MIC (E. coli S 35; S35, with compound of Formula (I) at 8 mcg/ml, read-out: MIC (mcg/ml) of cefepime in presence of a compound of Formula (I) (8 mcg/ml)): ≤ 0.015 µg/mL | MIC (K. pneumoniae B 77; B77, agent alone, enzymes SHV, TEM, NDM-1, read-out: MIC): > 32 µg/mL | MIC (K. pneumoniae B 77; B77, with compound of Formula (I) at 8 mcg/ml, read-out: MIC (mcg/ml) of cefepime in presence of a compound of Formula (I) (8 mcg/ml)): ≤ 0.25 µg/mL | MIC (K. pneumoniae B 88; B88, agent alone, enzymes SHV, TEM, NDM-1, read-out: MIC): > 32 µg/mL | MIC (K. pneumoniae B 88; B88, with compound of Formula (I) at 8 mcg/ml, read-out: MIC (mcg/ml) of cefepime in presence of a compound of Formula (I) (8 mcg/ml)): ≤ 0.015 µg/mL | MIC (K. pneumoniae M 3; M3, agent alone, enzymes SHV, CTXM, TEM, NDM-1, read-out: MIC): > 32 µg/mL | MIC (K. pneumoniae M 3; M3, with compound of Formula (I) at 8 mcg/ml, read-out: MIC (mcg/ml) of cefepime in presence of a compound of Formula (I) (8 mcg/ml)): ≤ 0.015 µg/mL | MIC (K. pneumoniae NCTC 13439; NCTC13439, agent alone, enzymes VIM-1, read-out: MIC): > 32 µg/mL | MIC (K. pneumoniae NCTC 13439; NCTC13439, with compound of Formula (I) at 8 mcg/ml, read-out: MIC (mcg/ml) of cefepime in presence of a compound of Formula (I) (8 mcg/ml)): 1 µg/mL | MIC (K. pneumoniae S 48; S48, agent alone, enzymes SHV, TEM, NDM-1, read-out: MIC): > 32 µg/mL | MIC (K. pneumoniae S 48; S48, with compound of Formula (I) at 8 mcg/ml, read-out: MIC (mcg/ml) of cefepime in presence of a compound of Formula (I) (8 mcg/ml)): ≤ 0.015 µg/mL | MIC (K. pneumoniae S 50; S50, agent alone, enzymes SHV, TEM, NDM-1, read-out: MIC): > 32 µg/mL | MIC (K. pneumoniae S 50; S50, with compound of Formula (I) at 8 mcg/ml, read-out: MIC (mcg/ml) of cefepime in presence of a compound of Formula (I) (8 mcg/ml)): ≤ 0.015 µg/mL | MIC ([1]; H113720186, agent alone, enzymes IMP, read-out: MIC): > 32 µg/mL | MIC ([1]; H113720186, with compound of Formula (I) at 8 mcg/ml, read-out: MIC (mcg/ml) of cefepime in presence of a compound of Formula (I) (8 mcg/ml)): ≤ 0.5 µg/mL | MIC (P. aeruginosa Q-111; Q111, agent alone, enzymes OXA-4, OXA-11, read-out: MIC): > 32 µg/mL | MIC (P. aeruginosa Q-111; Q111, with compound of Formula (I) at 8 mcg/ml, read-out: MIC (mcg/ml) of cefepime in presence of a compound of Formula (I) (8 mcg/ml)): ≤ 0.06 µg/mL | MIC (P. aeruginosa S 504; S504, agent alone, enzymes VIM-6, read-out: MIC): > 32 µg/mL | MIC (P. aeruginosa S 504; S504, with compound of Formula (I) at 8 mcg/ml, read-out: MIC (mcg/ml) of cefepime in presence of a compound of Formula (I) (8 mcg/ml)): ≤ 0.06 µg/mL | MIC (P. aeruginosa S 508; S508, agent alone, enzymes VIM-11, read-out: MIC): > 32 µg/mL | MIC (P. aeruginosa S 508; S508, with compound of Formula (I) at 8 mcg/ml, read-out: MIC (mcg/ml) of cefepime in presence of a compound of Formula (I) (8 mcg/ml)): ≤ 0.06 µg/mL | MIC (P. aeruginosa S 513; S513, agent alone, enzymes VIM-6, read-out: MIC): > 32 µg/mL | MIC (P. aeruginosa S 513; S513, with compound of Formula (I) at 8 mcg/ml, read-out: MIC (mcg/ml) of cefepime in presence of a compound of Formula (I) (8 mcg/ml)): ≤ 0.06 µg/mL | MICs (range over the strains) ([4]; agent alone, resistant strains of E. coli, K. pneumonia and P. aeruginosa): 16 to 64 µg/mL | MIC values of cefepime in presence of the compound of Formula (I) (range over the strains) ([4]; with compound of Formula (I) at 8 mcg/ml): 0.015 to 1 µg/mL
Compound: CO/N=C(\C(=O)N[C@@H]1C(=O)N2C(C(=O)[O-])=C(C[N+]3(C)CCCC3)CS[C@H]12)c1csc(N)n1 [Cefepime, cefepime]
Bacterial count ([2]; 2 hours): 6.9 Log CFU/ml | Bacterial count ([2]; 4 hours): 8.23 Log CFU/ml | Bacterial count ([2]; 6 hours): 8.23 Log CFU/ml | Change in bacterial count (in words) [2, 5]: no decrease in bacterial count was observed | Bacterial count ([3]; 2 hours): 6.17 Log CFU/ml | Bacterial count ([3]; 4 hours): 7.11 Log CFU/ml | Bacterial count ([3]; 6 hours): 8.69 Log CFU/ml | Change in bacterial count (in words) [3, 5]: no decrease in bacterial count was observed
